The results in this text go back to patent US20100216767A1, “QUINAZOLINES FOR PDK1 INHIBITION” (priority 2006, published 2010).

For the experiment, the target named is T1, PDK1 kinase (Homo sapiens, UniProt O15530).
T1 sequence (O15530 1-556): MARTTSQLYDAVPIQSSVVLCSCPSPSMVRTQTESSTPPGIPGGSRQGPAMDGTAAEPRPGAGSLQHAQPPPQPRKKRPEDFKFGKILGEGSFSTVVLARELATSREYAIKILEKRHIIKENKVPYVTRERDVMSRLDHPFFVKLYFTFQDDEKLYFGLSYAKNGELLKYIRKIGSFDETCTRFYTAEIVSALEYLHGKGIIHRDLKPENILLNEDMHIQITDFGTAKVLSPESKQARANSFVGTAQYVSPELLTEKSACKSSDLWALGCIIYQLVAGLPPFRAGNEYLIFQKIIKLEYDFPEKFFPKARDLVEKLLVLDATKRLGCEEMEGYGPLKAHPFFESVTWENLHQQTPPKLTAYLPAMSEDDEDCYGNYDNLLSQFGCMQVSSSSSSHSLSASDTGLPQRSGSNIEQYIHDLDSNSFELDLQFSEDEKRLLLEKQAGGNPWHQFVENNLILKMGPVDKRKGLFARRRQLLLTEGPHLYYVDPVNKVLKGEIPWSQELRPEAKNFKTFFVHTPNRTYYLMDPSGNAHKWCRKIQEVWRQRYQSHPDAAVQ
The experiment is described as follows: PDK1 Kinase Alpha Screen Assay. In kind it is biochemical. Conditions: Table 1; 10 μM ATP, 50 nM PDK1-4 peptide. The gist of the method:
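PDK1 phosphorylation of 50 nM biotinylated PDK1-4 peptide with 10 μM ATP in 50 mM Tris pH 7.5, 10 mM MgCl2, 0.1% BSA, 0.01% Tween-20, 2 mM DTT, 2.5% DMSO, 3-18 h. Stopped with EDTA; phosphopeptide detected by AlphaScreen using phospho-(Ser/Thr) PKA substrate antibody on protein A acceptor and streptavidin donor beads, overnight at room temperature.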

Compound `COc1cc2nc(Nc3cc(CN(C)C)cc(NC(C)=O)c3)ncc2cc1-c1nccs1` [Example 122, N-(3-((dimethylamino)-methyl)-5-(7-methoxy-6-(thiazol-2-yl)quinazolin-2-ylamino)phenyl)acetamide] showed an IC50 below 5 µM.

In the case of `NC(=O)c1cc(Nc2ncc3cc(Br)ccc3n2)ccc1N1CCOCC1` [Example 123, 5-(6-bromoquinazolin-2-ylamino)-2-morpholino-benzamide], the concentration for half-maximal inhibition (IC50) was in the range of 5 to 10 µM.

In turn, `C#Cc1ccc2nc(Nc3ccc(N4CCOCC4)c(C(N)=O)c3)ncc2c1` [Example 124, 5-(6-ethynylquinazolin-2-ylamino)-2-morpholino-benzamide] yielded an IC50 below 5 µM.

In turn, `C#Cc1ccc2nc(Nc3cc(CN4CCOCC4)cc(NC(C)=O)c3)ncc2c1` [Example 125, N-(3-(6-ethynylquinazolin-2-ylamino)-5-(morpholino-methyl)phenyl)acetamide] yielded an IC50 below 5 µM.

`CC(=O)Nc1cc(CN2CCCC2)cc(Nc2ncc3cc(-c4nccs4)ccc3n2)c1` [Example 126, N-(3-(pyrrolidin-1-ylmethyl)-5-(6-(thiazol-2-yl)quinazolin-2-ylamino)-phenyl)acetamide]: the IC50 is below 5 µM.

In turn, `C#Cc1ccc2nc(Nc3cc(CN4CCCC4)cc(NC(C)=O)c3)ncc2c1` [Example 127, N-(3-(6-ethynylquinazolin-2-ylamino)-5-(pyrrolidin-1-ylmethyl)phenyl)-acetamide] gave an IC50 below 5 µM.

`CC(=O)Nc1cc(CN2CCOCC2)cc(Nc2ncc3cc(Br)cc(Cl)c3n2)c1` [Example 128, N-(3-(6-bromo-8-chloro-quinazolin-2-ylamino)-5-(morpholinomethyl)-phenyl)-acetamide] yielded an IC50 below 5 µM.

Compound `C#Cc1cc(Cl)c2nc(Nc3cc(CN4CCOCC4)cc(NC(C)=O)c3)ncc2c1` [Example 129, N-(3-(8-chloro-6-ethynyl-quinazolin-2-ylamino)-5-(morpholinomethyl)-phenyl)-acetamide] had an IC50 below 5 µM.

As for `C#Cc1ccc2nc(Nc3cc(NC(C)=O)cc(NC(C)=O)c3)ncc2c1Cl` [Example 130, N,N′-(5-(5-chloro-6-ethynylquinazolin-2-ylamino)-1,3-phenylene-) diacetamide], the IC50 is below 5 µM.

As for `CC(=O)Nc1cc(CN2CCOCC2)cc(Nc2ncc3cc(-c4nccs4)ccc3n2)c1` [Example 133, N-(3-(morpholinomethyl)-5-(6-(thiazol-2-yl)-quinazolin-2-ylamino)-phenyl)acetamide], the concentration for half-maximal inhibition (IC50) was below 5 µM.

As for `CC(=O)Nc1cc(CN(C)C)cc(Nc2ncc3cc(Br)cc(F)c3n2)c1` [Example 135, N-(3-(6-Bromo-8-fluoroquinazolin-2-ylamino)-5-((dimethylamino)-methyl)phenyl)acetamide], the IC50 was below 5 µM.

Regarding `CC(=O)Nc1cc(CN2CCOCC2)cc(Nc2ncc3cc(-c4cnoc4)ccc3n2)c1` [Example 136, N-(3-(6-(isoxazol-4-yl)quinazolin-2-ylamino)-5-(morpholinomethyl)-phenyl)-acetamide], the IC50 was below 5 µM.

In turn, `C#Cc1ccc2nc(Nc3cc(CN)cc(NC(C)=O)c3)ncc2c1` [Example 137, N-(3-(aminomethyl)-5-(6-ethynylquinazolin-2-ylamino)phenyl)acetamide] had an IC50 below 5 µM.

Regarding `C#Cc1ccc2nc(Nc3ccccc3)ncc2c1` [Example 138, 6-ethynyl-N-phenyl-quinazolin-2-amine], the IC50 was below 5 µM.

The compound `C#Cc1cc(F)c2nc(Nc3cc(CN(C)C)cc(NC(C)=O)c3)ncc2c1` [Example 139, N-(3-((Dimethylamino)methyl)-5-(6-ethynyl-8-fluoroquinazolin-2-ylamino)-phenyl)acetamide] yielded an IC50 below 5 µM.

`COc1cc2nc(Nc3cc(CN4CCOCC4)cc(NC(C)=O)c3)ncc2cc1-c1nccs1` [Example 140, N-(3-(7-methoxy-6-(thiazol-2-yl)quinazolin-2-ylamino)-5-(morpholino-methyl)phenyl)-acetamide] showed an IC50 below 5 µM.

`C#Cc1ccc2nc(Nc3cc(CN4CCNCC4)cc(NC(C)=O)c3)ncc2c1` [Example 141, N-(3-(6-ethynylquinazolin-2-ylamino)-5-(piperazin-1-ylmethyl)phenyl)acetamide] had an IC50 below 5 µM.

Compound `C#Cc1ccc2nc(Nc3cc(CN4CCOCC4)cc(NC(=O)C(C)C)c3)ncc2c1` [Example 142, N-(3-(6-ethynylquinazolin-2-ylamino)-5-(morpholino-methyl)phenyl)-isobutyramide] gave an IC50 below 5 µM.

Regarding `C#Cc1ccc2nc(Nc3cc(CN4CCOCC4)cc(NS(C)(=O)=O)c3)ncc2c1` [Example 143, N-(3-(6-ethynylquinazolin-2-ylamino)-5-(morpholino-methyl)phenyl)methane-sulfonamide], the IC50 is below 5 µM.

Regarding `Brc1ccc2nc(Nc3cc(CN4CCOCC4)cc(-c4nnn[nH]4)c3)ncc2c1` [Example 144, 6-bromo-N-(3-(morpholinomethyl)-5-(1H-tetrazol-5-yl)phenyl)-quinazolin-2-amine], the IC50 was below 5 µM.

Compound `CC(=O)Nc1cc(CN2CCOCC2)cc(Nc2ncc3cc(Br)ccc3n2)c1` [Example 145, N-(3-(6-bromoquinazolin-2-ylamino)-5-(morpholino-methyl)phenyl)acetamide] displayed an IC50 below 5 µM.

`C#Cc1ccc2nc(Nc3cc(NC(C)=O)cc(-c4ccncc4)c3)ncc2c1` [Example 146, N-(3-(6-ethynylquinazolin-2-ylamino)-5-(pyridin-4-yl)phenyl)acetamide] registered an IC50 below 5 µM.

`CC(=O)Nc1cc(CN(C)C)cc(Nc2ncc3cc(Br)ccc3n2)c1` [Example 147, N-(3-(6-bromoquinazolin-2-ylamino)-5-((dimethyl-amino)methyl)phenyl)-acetamide] yielded an IC50 below 5 µM.

With `CC#Cc1ccc2nc(Nc3cc(CN(C)C)cc(NC(C)=O)c3)ncc2c1` [Example 148, N-(3-((dimethylamino)-methyl)-5-(6-(prop-1-ynyl)quinazolin-2-ylamino)phenyl)acetamide], the half-maximal inhibitory concentration (IC50) is below 5 µM.

As to `C#Cc1ccc2nc(Nc3cc(CN4CCOCC4)cc(-c4nnn[nH]4)c3)ncc2c1` [Example 149, 6-ethynyl-N-(3-(morpholinomethyl)-5-(1H-tetrazol-5-yl)phenyl)-quinazolin-2-amine], the IC50 was below 5 µM.

`COc1cc2nc(Nc3ccc(N4CCOCC4)cc3)ncc2cc1-c1cn[nH]c1` [Example 150, 7-methoxy-N-(4-morpholinophenyl)-6-(1H-pyrazol-4-yl)quinazolin-2-amine] had an IC50 below 5 µM.

`N#Cc1cc(CN2CCOCC2)cc(Nc2ncc3cc(Br)ccc3n2)c1` [Example 151, 3-(6-bromoquinazolin-2-ylamino)-5-(morpholino-methyl)benzonitrile] registered an IC50 below 5 µM.

For `C#Cc1ccc2nc(Nc3cc(C#N)cc(CN4CCOCC4)c3)ncc2c1` [Example 152, 3-(6-ethynylquinazolin-2-ylamino)-5-(morpholino-methyl)benzonitrile], the IC50 is below 5 µM.

For the compound `CC(=O)Nc1cc(Nc2ncc3cc(Br)ccc3n2)cc(-c2cn[nH]c2)c1` [Example 153, N-(3-(6-bromoquinazolin-2-ylamino)-5-(1H-pyrazol-4-yl)phenyl)acetamide], the IC50 was below 5 µM.

On to `C#Cc1ccc2nc(Nc3cc(OC)cc(-n4nnnc4C)c3)ncc2c1` [Example 156, 6-ethynyl-N-(3-methoxy-5-(5-methyl-1H-tetrazol-1-yl)phenyl)quinazolin-2-amine], for which the IC50 is below 5 µM.

In turn, `C#Cc1ccc2nc(Nc3cc(-c4ccncc4)cc(N4CCOCC4)c3)ncc2c1` [Example 157, 6-ethynyl-N-(3-morpholino-5-(pyridin-4-yl)phenyl)quinazolin-2-amine] had an IC50 below 5 µM.

On to `C#Cc1ccc2nc(Nc3cc(-c4cn[nH]c4)cc(N4CCOCC4)c3)ncc2c1` [Example 158, 6-ethynyl-N-(3-morpholino-5-(1H-pyrazol-4-yl)phenyl)-quinazolin-2-amine], for which the IC50 is below 5 µM.

For `C#Cc1ccc2nc(Nc3cc(-c4cccnc4)cc(N4CCOCC4)c3)ncc2c1` [Example 159, 6-ethynyl-N-(3-morpholino-5-(pyridin-3-yl)phenyl)quinazolin-2-amine], the IC50 is below 5 µM.

In turn, `C#Cc1ccc2nc(Nc3cc(-c4ccncc4F)cc(N4CCOCC4)c3)ncc2c1` [Example 160, 6-ethynyl-N-(3-(3-fluoro-pyridin-4-yl)-5-morpholinophenyl)-quinazolin-2-amine] came in with a half-maximal inhibitory concentration (IC50) below 5 µM.

In turn, `C#Cc1ccc2nc(Nc3cc(CN4CCOCC4)cc(NC(C)=O)c3)ncc2c1F` [Example 161, N-(3-(6-ethynyl-5-fluoro-quinazolin-2-ylamino)-5-(morpholinomethyl)-phenyl)-acetamide] had an IC50 below 5 µM.

Turning to `C#Cc1ccc2nc(Nc3cc(CN4CCOCC4)cc(NS(C)(=O)=O)c3)ncc2c1F` [Example 162, N-(3-(6-ethynyl-5-fluoro-quinazolin-2-ylamino)-5-(morpholinomethyl)-phenyl)-methanesulfonamide], the IC50 was below 5 µM.

For orientation: IC50 means the concentration at which inhibition is half-maximal.
